Data from patent US12448373B2, “Azetidinyl-acetamides as CXCR7 inhibitors” (CHEMOCENTRYX, INC., priority 2021, dated 2025).

Each compound was assayed against T1, CXCR7 (Homo sapiens, UniProt P25106) (assay: CXCR7 β-arrestin recruitment assay in CHO-CXCR7 cells (ProLink/EA β-galactosidase complementation), induced by human SDF-1a). Conditions: assay buffer, SDF-1a at EC50 concentration.
T1 construct: expressed in transfected cells; host or cells: CHO cells (CHO-CXCR7), transgenes maintained with Hygromycin B and G418
Format: cell-based
Method: CXCR7 is fused in frame with a small enzyme donor fragment ProLink and co-expressed in CHO cells stably expressing a fusion protein of β-arrestin and the larger, N-terminal deletion mutant of β-galactosidase (called enzyme acceptor or EA). Activation of the CXCR7 stimulates binding of β-arrestin to the ProLink-tagged CXCR7 and forces complementation of the two enzyme fragments, resulting in the formation of an active β-galactosidase enzyme. The β-galactosidase enzyme activity is measured with a substrate that generates fluorescence.
CHO-CXCR7 cells (0.22×10^6/mL) were cultured in growth medium (Ham's F-12 medium with 10% fetal bovine serum (FBS)), Hygromycin B (200 ug/mL) and G418 (250 ug/mL) were used to maintain the transgenes. The day before the assay, the cells were detached from culture dishes with 0.25% trypsin-EDTA (Corning, Catalog No. 25-053-CI), plated into 96 well plate (2.2×10^5 cells/mL, 100 μL/well) and incubated overnight at 37° C. with 5% CO2. On the day of the assay, cell culture medium was removed and 100 uL of assay buffer (PBS or FBS) was added to each well. 1 μL of compound that were serially diluted in DMSO was added to each well. 5 μL of human SDF-la (Pepro Tech, Catalog No. 300-28A, at EC50 concentration pre-determined on the same day) was then added and mixed to induce CXCR7-mediated β-arrestin recruitment. The plates were incubated for 1.5 hours at 37° C. The assay buffer was removed, 100 μL substrate solution was added and the reaction was carried out at 37° C. for 30 minutes. The substrate solution was prepared by mixing 100 mL Phosphate Buffer (1M, Sigma, Catalog No. P3619-1GA), 100 mL 10% Triton X 100 (Sigma, Catalog No. T8787.), 5 mL MgCl2 (1M, Sigma, Catalog No. M1028), 1.5 mL, β-mercaptoethanol (Gibco, Catalog No. 21985-023.). 3-carboxyumbelliferyl β-D-galactopyranoside (ThermoFisher Scientific, Catalo No. F2905) was added at 0.4 mM right before use. The reaction was then stopped by adding 50 μL of Stop Solution (2.1% w/v Na2CO3) to each well. Fluorescence intensity was measured with a FlexStation 3 microplate reader (Molecular Devices) with the following setting—excitation: 360 nm, emission: 465 nm, manual Gain: 55. IC50 values were calculated with GraphPad Prism using 3 parameter nonlinear regression.

T1 sequence (P25106 whole entry): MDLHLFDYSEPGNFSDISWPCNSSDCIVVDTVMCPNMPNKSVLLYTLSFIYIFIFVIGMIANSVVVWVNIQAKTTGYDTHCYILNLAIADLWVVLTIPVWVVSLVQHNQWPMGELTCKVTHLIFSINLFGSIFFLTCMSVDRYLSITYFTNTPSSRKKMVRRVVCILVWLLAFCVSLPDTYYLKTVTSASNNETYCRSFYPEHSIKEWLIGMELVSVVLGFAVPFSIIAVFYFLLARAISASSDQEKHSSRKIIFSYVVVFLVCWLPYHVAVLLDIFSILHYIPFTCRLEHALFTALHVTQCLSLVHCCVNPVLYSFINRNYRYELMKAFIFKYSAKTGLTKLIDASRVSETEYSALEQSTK

Row | SMILES | IC50
1 | CC(C)(NC(=O)CC1(NC(=O)c2cc(-c3ccc(F)cc3F)on2)CN(C2CCC3(CCOCC3)CC2)C1)c1ccccn1 [Example 1.102] | 100 to 1000 nM
2 | CC(C)(NC(=O)CC1(NC(=O)c2cn(-c3ccc(F)cc3F)nn2)CN([C@H]2CC[C@](C)(O)CC2)C1)c1ccccc1 [Example 1.081] | 5 to 100 nM
3 | CC(C)(NC(=O)CC1(NC(=O)c2cc(-c3ccc(F)cc3F)on2)CN([C@H]2CC[C@](C)(O)CC2)C1)c1ccnc(C2CC2)c1 [Example 1.147] | 5 to 100 nM
4 | CC(C)(NC(=O)CC1(NC(=O)c2cc(-c3ccc(F)cc3F)on2)CN(CC2CC2)C1)c1cccc(Cl)c1 [Example 1.113] | 5 to 100 nM
5 | Cn1ccc2c(C(C)(C)NC(=O)CC3(NC(=O)c4cc(-c5ccc(F)cc5F)on4)CN([C@H]4CC[C@](C)(O)CC4)C3)cccc21 [Example 1.126] | 5 to 100 nM
6 | CC(C)(NC(=O)CC1(NC(=O)c2cc(-c3ccc(F)cc3F)on2)CN([C@H]2CC[C@](C)(O)CC2)C1)c1cc(F)cc(Cl)c1 [Example 1.124] | < 5 nM
7 | CC1(CN2CC(CC(=O)NC(C)(C)c3cccc(C(F)(F)F)n3)(NC(=O)c3cc(-c4ccc(F)cc4F)on3)C2)COC1 [Example 1.130] | 1000 to 20000 nM
8 | CC(C)(NC(=O)CC1(NC(=O)c2cc(-c3ccc(F)cc3F)on2)CN([C@H]2CC[C@](C)(O)CC2)C1)c1ccccn1 [Example 1.035] | 5 to 100 nM
9 | CC(C)(NC(=O)CC1(NC(=O)c2cc(-c3ccc(F)cc3)on2)CN([C@H]2CC[C@@](C)(O)CC2)C1)c1ccccc1 [Example 1.089] | 5 to 100 nM
10 | CC(C)(NC(=O)CC1(NC(=O)c2cn(-c3ccc(F)cc3F)nn2)CN([C@H]2CC[C@](C)(O)CC2)C1)c1cccc(Cl)c1 [Example 1.067] | 5 to 100 nM
11 | COc1cc(C)nc(C(C)(C)NC(=O)CC2(NC(=O)c3cc(-c4ccc(F)cc4F)on3)CN([C@H]3CC[C@@](C)(O)CC3)C2)n1 [Example 1.167] | < 5 nM
12 | C[C@]1(O)CC[C@H](N2CC(CC(=O)NCc3cccc4[nH]ccc34)(NC(=O)c3cc(-c4ccc(F)cc4F)on3)C2)CC1 [Example 1.100] | < 5 nM
13 | Cn1ccc2c(C(C)(C)NC(=O)CC3(NC(=O)c4cc(-c5ccc(F)cc5F)on4)CN([C@H]4CC[C@@](C)(O)CC4)C3)cccc21 [Example 1.125] | 5 to 100 nM
14 | CC(C)(NC(=O)CC1(NC(=O)c2nnc(-c3ccc(F)cc3F)s2)CN([C@H]2CC[C@](C)(O)CC2)C1)c1ncccn1 [Example 1.033] | 5 to 100 nM
15 | CC(C)(NC(=O)CC1(NC(=O)c2ncc(-c3ccc(F)cc3F)s2)CN([C@H]2CC[C@@](C)(O)CC2)C1)c1cccc(Cl)c1 [Example 1.045] | 5 to 100 nM
16 | CC(C)(NC(=O)CC1(NC(=O)c2cc(-c3ccc(F)cc3F)on2)CN([C@H]2CC[C@@](C)(O)CC2)C1)c1cc(Cl)ccc1Cl [Example 1.085] | < 5 nM
17 | CC(C)(NC(=O)CC1(NC(=O)c2nnc(-c3ccc(F)cc3F)s2)CN([C@H]2CC[C@](C)(O)CC2)C1)c1cc(F)ccc1F [Example 1.024] | 5 to 100 nM
18 | Cc1cccc(C(C)(C)NC(=O)CC2(NC(=O)c3cc(-c4ccc(F)cc4F)on3)CN(CC(C)C)C2)n1 [Example 1.026] | 5 to 100 nM
19 | Cc1cc(C)nc(C(C)(C)NC(=O)CC2(NC(=O)c3cc(-c4ccc(F)cc4F)on3)CN([C@H]3CC[C@](C)(O)CC3)C2)n1 [Example 1.168] | < 5 nM
20 | CC(C)(NC(=O)CC1(NC(=O)c2nnc(-c3ccc(F)cc3F)s2)CN([C@H]2CC[C@](C)(O)CC2)C1)c1ncccc1F [Example 1.022] | 5 to 100 nM
21 | CC(C)(NC(=O)CC1(NC(=O)c2cn(-c3ccc(F)cc3F)nn2)CN(C2CCCCC2)C1)c1ccccn1 [Example 1.075] | 5 to 100 nM
22 | CC(C)(NC(=O)CC1(NC(=O)c2cc(-c3ccc(F)cc3F)on2)CN([C@H]2CC[C@@](C)(O)CC2)C1)c1cnccn1 [Example 1.157] | 5 to 100 nM
23 | CC(C)(NC(=O)CC1(NC(=O)c2nnc(-c3ccc(F)cc3F)s2)CN([C@H]2CC[C@@](C)(O)CC2)C1)c1ccccn1 [Example 1.062] | 5 to 100 nM
24 | Cc1cc(C(C)(C)NC(=O)CC2(NC(=O)c3cc(-c4ccc(F)cc4F)on3)CN(CC3CC3)C2)ccn1 [Example 1.114] | 5 to 100 nM
25 | CC(C)(O)CN1CC(CC(=O)NC(C)(C)c2cc(F)cc(F)c2)(NC(=O)c2cc(-c3ccc(F)cc3F)on2)C1 [Example 1.137] | 5 to 100 nM
26 | Cc1cc(C)nc(C(C)(C)NC(=O)CC2(NC(=O)c3cn(-c4ccc(F)cc4F)nn3)CN(C3CCCCC3)C2)n1 [Example 1.071] | 5 to 100 nM
27 | Cc1cc(C(C)(C)NC(=O)CC2(NC(=O)c3cc(-c4ccc(F)cc4F)on3)CN(C3CCC(C)(O)CC3)C2)cc(C)n1 (stereo not drawn) [Example 1.111] | 5 to 100 nM
28 | Cc1cccnc1C(C)(C)NC(=O)CC1(NC(=O)c2nnc(-c3ccc(F)cc3F)s2)CN([C@H]2CC[C@](C)(O)CC2)C1 [Example 1.012] | 100 to 1000 nM

Second part, the compound after the results:

Row | IC50 | SMILES
29 | 1000 to 20000 nM | CC(N1CC(CC(=O)NC(C)(C)c2ccccn2)(NC(=O)c2cc(-c3ccc(F)cc3F)on2)C1)C(F)(F)F (stereo not drawn) [Example 1.312]
30 | < 5 nM | CC(C)(NC(=O)CC1(NC(=O)c2cc(-c3ccc(F)cc3F)on2)CN([C@H]2CC[C@@](C)(O)CC2)C1)c1ccncc1 [Example 1.180]
31 | 5 to 100 nM | CC(C)(NC(=O)CC1(NC(=O)c2cc(-c3ccc(F)cc3F)on2)CN(C2CCCCC2(F)F)C1)c1ccccn1 (stereo not drawn) [Example 1.311]
32 | < 5 nM | Cc1cc(C#N)cc(C(C)(C)NC(=O)CC2(NC(=O)c3nnc(-c4ccc(F)cc4F)s3)CN([C@H]3CC[C@](C)(O)CC3)C2)n1 [Example 1.337]
33 | < 5 nM | COc1ccccc1C(C)(C)NC(=O)CC1(NC(=O)c2cc(-c3ccc(F)cc3F)on2)CN(C2CCC(C)(O)CC2)C1 (stereo not drawn) [Example 1.241]
34 | 100 to 1000 nM | Cc1ccc(C(C)(C)NC(=O)CC2(NC(=O)c3cc(-c4ccc(F)cc4F)on3)CN([C@H]3CC[C@](C)(O)CC3)C2)c(F)c1 [Example 1.247]
35 | 5 to 100 nM | CC1(CN2CC(CC(=O)NC(C)(C)c3ccccn3)(NC(=O)c3cc(-c4ccc(F)cc4F)on3)C2)COC1 [Example 1.224]
36 | < 5 nM | CC(C)(NC(=O)CC1(NC(=O)c2cc(-c3ccc(F)cc3F)on2)CN([C@H]2CC[C@@](C)(O)CC2)C1)c1cccc(F)c1 [Example 1.290]
37 | 1000 to 20000 nM | CC(C)(NC(=O)CC1(NC(=O)c2cc(-c3ccc(F)cc3F)on2)CN(c2ncccn2)C1)c1ccccn1 [Example 1.315]
38 | < 5 nM | Cc1ccc(F)c(C(C)(C)NC(=O)CC2(NC(=O)c3cc(-c4ccc(F)cc4F)on3)CN([C@H]3CC[C@@](C)(O)CC3)C2)c1 [Example 1.184]
39 | 5 to 100 nM | Cc1cccc(C(C)(C)NC(=O)CC2(NC(=O)c3cc(-c4ccc(F)cc4F)on3)CN(CC(C)(C)O)C2)n1 [Example 1.240]
40 | 5 to 100 nM | CC(C)(O)CN1CC(CC(=O)NC(C)(C)c2cccc(F)c2)(NC(=O)c2cc(-c3ccc(F)cc3F)on2)C1 [Example 1.251]
41 | < 5 nM | CC(C)(NC(=O)CC1(NC(=O)c2cc(-c3ccc(F)cc3F)on2)CN(C2CCCCC2)C1)c1ccccc1 [Example 1.318]
42 | < 5 nM | CC(C)(NC(=O)CC1(NC(=O)c2cc(-c3ccc(F)cc3F)on2)CN([C@H]2CC[C@@](C)(O)CC2)C1)c1ccccc1F [Example 1.227]
43 | 100 to 1000 nM | Cc1nc(C(C)(C)NC(=O)CC2(NC(=O)c3cc(-c4ccc(F)cc4F)on3)CN(C3CCC4(CC3)COC4)C2)sc1C [Example 1.245]
44 | 1000 to 20000 nM | O=C(CC1(NC(=O)c2cc(-c3ccc(F)cc3F)on2)CN(C2CCCCC2)C1)N[C@H](C(=O)O)c1ccccc1 [Example 1.283]
45 | 100 to 1000 nM | Cc1cc(C(C)C)cc(C(C)(C)NC(=O)CC2(NC(=O)c3nnc(-c4ccc(F)cc4F)s3)CN([C@H]3CC[C@](C)(O)CC3)C2)n1 [Example 1.347]
46 | < 5 nM | CC(C)(NC(=O)CC1(NC(=O)c2cc(-c3ccc(F)cc3F)on2)CN(C2CCCCC2)C1)c1cccc(F)c1 [Example 1.301]
47 | 5 to 100 nM | O=C(CC1(NC(=O)c2cc(-c3ccc(F)cc3F)on2)CN(C2CCCCC2)C1)NC1(c2ncccn2)CC1 [Example 1.332]
48 | 5 to 100 nM | COC1CCC(N2CC(CC(=O)NC(C)(C)c3ccccn3)(NC(=O)c3cc(-c4ccc(F)cc4F)on3)C2)CC1 (stereo not drawn) [Example 1.299]
49 | < 5 nM | CC(C)(NC(=O)CC1(NC(=O)c2cc(-c3ccc(F)cc3F)on2)CN([C@H]2CC[C@](C)(O)CC2)C1)c1cccc(F)c1 [Example 1.289]
50 | 5 to 100 nM | O=C(CC1(NC(=O)c2cc(-c3ccc(F)cc3F)on2)CN(C2CCCCC2)C1)NC1(c2ccccc2)COC1 [Example 1.320]
51 | 100 to 1000 nM | O=C(CC1(NC(=O)c2cc(-c3ccc(F)cc3F)on2)CN(Cc2ccccc2)C1)NC1(c2ncccn2)CC1 [Example 1.329]
